Here are results for four molecules from patent publication US7195892B2, “Acylase gene” (Kaneka Corporation, priority 2002, dated 2007).

Common to all, as to type: biochemical
Series [1] has as its system Stenotrophomonas maltophilia KNK12A strain-derived β-lactam acylase. As to the kind of experiment: Amoxycillin synthetic activity inhibition by PAA and PXA. Conditions: for relative activity, amoxycillin synthesis amount with the substrate alone set at 100%: 30 mM KPB pH 6.0, 30° C., 1 hour; for inhibition of amoxycillin synthesis (in words): summary of Table 1. As for the experimental part:
(§1) To 200 μl of a substrate solution prepared by dissolving 6-APA and HPGOMe-HCl in 30 mM KPB (pH 6.0) at the concentration of 0.5%, 10 μl of the enzyme solution obtained in (Examination Example 1) was added. PAA was added to be 0.3% and PXA was added to be 0.35%, and the mixture was subjected to reaction while shaking at 30° C. for 1 hour. Then, 1N HCl was added in 1/20 amount of the substrate to terminate the reaction. The generated amoxycillin was detected using HPLC. The result showing relative activity for the respective enzymes with the amoxycillin synthesis amount reacted by the substrate alone being set at 100% is shown in Table 1.

The target in series [2] is T1, Escherichia coli PenG amidase (Escherichia coli, UniProt P06875).
T1 construct: purchased Sigma
T1 sequence (P06875 290-846): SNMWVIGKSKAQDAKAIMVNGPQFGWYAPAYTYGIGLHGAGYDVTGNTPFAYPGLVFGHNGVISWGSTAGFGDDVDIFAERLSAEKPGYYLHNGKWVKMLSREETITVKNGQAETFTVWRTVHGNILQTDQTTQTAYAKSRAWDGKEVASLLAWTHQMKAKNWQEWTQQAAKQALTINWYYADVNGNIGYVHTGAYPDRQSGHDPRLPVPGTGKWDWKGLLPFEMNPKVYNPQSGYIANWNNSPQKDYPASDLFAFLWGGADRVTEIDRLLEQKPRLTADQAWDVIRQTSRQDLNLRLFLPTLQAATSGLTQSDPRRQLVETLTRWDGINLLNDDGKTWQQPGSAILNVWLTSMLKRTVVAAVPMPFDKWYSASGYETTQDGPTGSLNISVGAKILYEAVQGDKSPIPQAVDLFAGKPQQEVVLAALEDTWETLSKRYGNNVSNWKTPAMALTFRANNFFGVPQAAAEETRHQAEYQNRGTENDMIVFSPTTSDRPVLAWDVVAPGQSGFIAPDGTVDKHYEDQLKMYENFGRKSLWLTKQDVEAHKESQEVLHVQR
T1 sequence (P06875 27-235): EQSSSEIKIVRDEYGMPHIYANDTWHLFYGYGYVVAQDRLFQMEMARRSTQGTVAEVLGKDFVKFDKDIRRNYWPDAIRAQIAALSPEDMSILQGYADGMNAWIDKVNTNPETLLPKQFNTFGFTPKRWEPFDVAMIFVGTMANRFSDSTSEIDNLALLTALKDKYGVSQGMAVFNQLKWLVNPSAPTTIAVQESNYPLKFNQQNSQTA
The description is as above. The settings on record: for relative activity, amoxycillin synthesis amount with the substrate alone set at 100%: 30 mM KPB pH 6.0, 30° C., 1 hour; for inhibition of amoxycillin synthesis (in words): summary of Table 1. As to the method: as §1

Series [3] is described as follows: Comparison of decomposition activity of HPGOMe. The settings on record: 0.5% HPGOMe-HCl, pH 6.0, 30° C., 1 hour; FIG. 5. As to the method:
To 200 μl of a liquid prepared by dissolving HPGOMe-HCl in 30 mM KPB (pH 6.0) at the concentration of 0.5%, 10μ of the enzyme solution obtained in (Examination Example 1) was added, and the mixture was subjected to reaction while shaking at 30° C. for 1 hour. Then, 1N HCl was added in 1/20 amount of the substrate solution to terminate the reaction. The remained HPGOMe was detected using HPLC.

A short description of series [4]: Decomposition activity of amoxycillin. The settings on record: 0.5% amoxycillin, pH 6.0, 30° C., 1 hour; FIG. 4. As for the experimental part:
To 200 μl of a solution prepared by dissolving amoxycillin in 30 mM KPB (pH 6.0) at the concentration of 0.5%, 10 μl of the enzyme solution obtained in (Examination Example 1) was added. The mixture was subjected to reaction for 1 hour while shaking at 30° C., and 1N HCl was added in 1/20 amount of the substrate solution to terminate the reaction.
To 200 μl of a liquid prepared by dissolving amoxycillin in 30 mM KPB (pH 6.0) at the concentration of 0.5%, 10 μl of the enzyme solution obtained in (Examination Example 1) was added. The mixture was subjected to reaction while shaking at 30° C. for 1 hour, and then 1N HCl was added in 1/20 amount of the substrate solution to terminate the reaction. The remained amoxycillin was detected using HPLC.

Series [5] can be described thus: Comparison of amoxycillin synthesis activity. Conditions: 0.5% 6-APA and HPGOMe-HCl, pH 6.0, 30° C., 0-120 minutes; FIG. 3. As to the method: Amoxycillin synthesis activities of the Stenotrophomonas maltophilia KNK12A strain-derived β-lactam acylase and the known Escherichia coli PenG amidase (Sigma) were compared. As an enzyme solution, the fraction obtained in (Example 8) (enzyme concentration: about 3.2 ng/10 μl) was used for the Stenotrophomonas maltophilia KNK12A strain-derived β-lactam acylase, and 100-fold diluted solution (10.2 munit/10 μl, enzyme concentration: about 3.5 ng/10 μl) was used for Escherichia coli PenG amidase.
To 200 μl of a substrate solution prepared by dissolving 6-APA and HPGOMe-HCl in 30 mM KPB (pH 6.0) at the concentration of 0.5%, 10 μl of the enzyme solution was added and the mixture was subjected to reaction while shaking at 30° C. After the lapse of 0, 5, 10, 15, 30, 45, 60, 75, 90, 105 and 120 minutes from the start of the reaction, 1N HCl was added in 1/20 amount of the substrate solution to terminate the reaction. The generated amoxycillin was detected using HPLC.

Series [6] in a line: Capability comparison examination of a mutant acylase. The settings on record: compared with unmodified acylase. As to the method:
A β-lactam acylase-producing strain pUCNTkmTn5-KNK-L/HB101 strain and 1 amino acid-substituted mutant β-lactam acylase-producing strain pUCNT-Tn5-MuKNK-L1/HB101 strain were inoculated in 10 ml of CM culture medium, and shaking culture was carried out at 37° C. overnight. Cells were recovered from 2 ml of the culture by centrifugation, and suspended in 30 mM KPB (pH 6.0). Then, 1 ml of a substrate (prepared by dissolving 0.5% HPGOMe-HCl and 0.5% 6-APA in 30 mM KPB and adjusted to pH 6.0) was mixed therewith, and the mixture was subjected to reaction at 30° C. After the lapse of 10, 20, 30, 60, 90 and 180 minutes from the start of the reaction, 1N HCl was added in 1/20 amount of the substrate solution to terminate the reaction. Then, the centrifuged supernatant was diluted to 25-fold with 30 mM KPB, and 10 μl thereof was analyzed by HPLC. The amoxycillin conversion efficiency comparison is shown in FIG. 6, and ester decomposition degree comparison of D-p-hydroxyphenylglycine methyl ester (HPGOMe) is shown in FIG. 7.

Where a chain is given by its changes, count along the chain named.

In the case of `O=C(O)COc1ccccc1` [PXA, Phenoxyacetic Acid], the “relative activity, amoxycillin synthesis amount with the substrate alone set at 100%” value in series [1] (Substrate + 0.35% PXA) was 76%; in series [2] (Substrate + 0.35% PXA), 0%. The “inhibition of amoxycillin synthesis (in words)” value is “not inhibited at all, or even in the case there is inhibition, it is slight” in series [1] and “inhibited” in series [2].
For `O=C(O)Cc1ccccc1` [PAA, Phenylacetic Acid], the “relative activity, amoxycillin synthesis amount with the substrate alone set at 100%” value in series [1] (Substrate + 0.3% PAA) stood at 107%; in series [2] (Substrate + 0.3% PAA), 0%. Moreover, the “inhibition of amoxycillin synthesis (in words)” value in series [1] is “not inhibited at all, or even in the case there is inhibition, it is slight”; in series [2], “inhibited”.

B1: Stenotrophomonas maltophilia KNK12A strain-derived β-lactam acylase: β-lactam acylase of Stenotrophomonas maltophilia KNK12A, amino acid sequence SEQ ID NO:2, about 70 kDa (protein, listed as Stenotrophomonas maltophilia)
chain: MHVRAVAVAIALSLSSTVLAADTPPMTPDISGKPFIAPDVGRDYDKRVVMVPMRDGTRLYTVIVVPKGAHNAPILLTRTPYDAAGRASRSDSPRMRDLLPQGDEVFVDGGYIRVFQDIRGKYGSEGDYVMTRPLRGPLNNTKVDHSTDAWDTIDWLVKHVPESNGKVGMLGSSYEGFTVVMALTDPHPALKVAAPQSPMVDGWMGDDWLNYGAFRQVNFNYFAMQTEKRGKGTPLPSLGYDDYSTFLRIGSAGDYARFTGVDQLTWWKKLVQHPAYDGFWQGQALDAVMAKTPLKVPTMWLQGLWDQEDMWGANHAYQAMEGRDTGNTHNYLVMGPWRHSQVNYTGNELGALKFEGDTALQFRRDVLKPFFDQYLVDGAPKADTPPVLIYNTGENHWDRLQGWPRSCDKGCTAASKPLYLRAGGKLAFQAPAAGEGDFEEYVSDPAKPVPFVPRPVRFGDRDMWTTWLVKDQRFVDGRPDVLTFITEPLAEPLRIGGAPVVHLQASTSGTDSDWVVKLIDVYPDQEASTPEMGGYELPVSLAIFRGRYRESFSDPKPLAANQVLPYRFDLPNANHVFQKGHRVMVQVQSSLFPLYDRNPQTYVPNIYLAKPGDYQKATQRVWHSAAQASYVDLPVY
With B1, the “decomposition speed of HPGOMe” value in series [3] is given as “faster than that of Escherichia coli PenG amidase”. In addition, the amoxycillin decomposition speed result in series [4] is reported as “slow”. Further, the “amoxycillin synthesis conversion rate” value in series [5] is on record as “very high conversion rate as compared with Escherichia coli PenG amidase”.

B2: mutant β-lactam acylase (protein, listed as Stenotrophomonas maltophilia)
chain: B1 chain with M204V
With B2, the acylase activity entry in series [6] (FIG. 6) is “enhanced”. Further, the “ester decomposition activity of the substrate HPGOMe” value in series [6] (FIG. 7) was “reduced”.
